In article PMC11821258 (Molecules, 2025):
Like-named read-outs stand apart in the source and are kept apart here.

How the values were obtained:
Assay type in all cases: cell-based
[1] = test system: human biphenotypic B myelomonocytic leukemia MV4-11; test: Antiproliferative activity, MTT assay, 72 h; conditions: for IC50: Homo sapiens, MV4-11, 72 h; for SI: IC50 MCF-10A / IC50 MV4-11
Experimental: (§1) The tested compounds were dissolved in DMSO (dimethyl sulfoxide) to a concentration of 10 mg/mL and then were diluted in the culture medium to reach the final concentrations. The cells were plated in 384-well plates at a density of 1 × 10^3 or 2 × 10^3 (MCF-10A) cells per well (Greiner Bio One, Kremsmünster, Austria) and in 96-well plates (MV4-11 cell; Sarstedt, Nümbrecht, Germany) at a density of 5 × 10^3 cells per well. After 24 h of incubation, the tested compounds were added at concentrations in the range of 100–0.03 µg/mL and, after the next 72 h of exposure to tested agents, the cytotoxic effect of all agents was examined using the MTT (MV4-11) or SRB assay, described previously. The values of IC50 (inhibitory concentration 50%) were calculated separately for each experiment (repeated 3–5 times) using the Prolab-3 system which is based on Cheburator 0.4 software. Doxorubicin was applied as a reference drug. The IC50 values in µg/mL were calculated to µM.
This assay was used against MV4-11 leukemia cells and was performed after 72 h of exposure of the tested agents to the cells. For each well, 20 µL of the MTT [3-(4,5-dimethylthiazol-2-yl)-2,5-diphenyl tetrazolium bromide] solution (5 mg/mL, Merck, Darmstadt, Germany) was added. After the incubation time (4 h at 37 °C), 80 µL of the lysing buffer was added to each well (mixture of 225 mL of DMF (dimethylformamide) Avantor, Poland; 67.5 g of SDS, Merck, Darmstadt, Germany; and 275 mL of distilled water). After the next 24 h, the absorbance of the samples was measured at a 570 nm wavelength on a Synergy H4 photometer (BioTek Instruments, Winooski, VT, USA). The absorbance of wells without the cells was the background.

[2] = test system: human breast cancer MCF-7; test: Antiproliferative activity, SRB assay, 72 h; conditions: for IC50: Homo sapiens; for SI: IC50 MCF-10A / IC50 MCF-7
Experimental: as §1
(§2) The cytotoxicity assay was performed after the cultured cells were exposed to the tested agents for 72 h using the authomatic Washer dyspenser EL406, BioTek. At the first step, the washer dispenser collected 40 µL of cultured medium from each wells, and then the cells were fixed by gently layering 20 µL per well of cold 25% trichloroacetic acid to each well. The incubation time was 40 min and then the plates were washed with tap water. The cells were stained with 20 µL per well of 0.1% sulforhodamine B (SRB, Merck, Darmstadt, Germany) for 30 min. Unbound sulforhodamine B was removed by washing it with 1% acetic acid. The protein-bound dye was extracted in 30 min using 70 µL per well of 10 mM unbuffered Tris base (Merck, Darmstadt, Germany). The absorbance (at 540 nm) was measured on a Synergy H4 photometer (BioTek Instruments, Winooski, VT, USA). The absorbance of the wells without the cells was the background.

[3] = test system: human colon cancer HCT116 cells; test: Antiproliferative activity, SRB assay, 72 h; conditions: for SI: IC50 MCF-10A / IC50 HCT116
Experimental: as §1, §2

[4] = test system: human lung carcinoma A549; test: Antiproliferative activity, SRB assay, 72 h; conditions: for IC50: A549, 72 h; for SI: IC50 MCF-10A / IC50 A549
Experimental: as §1, §2

[5] = test system: human melanoma Hs294T cells; test: Antiproliferative activity, SRB assay, 72 h; conditions: for IC50: 72 h; for SI: IC50 MCF-10A / IC50 Hs249T (so in the source)
Experimental: as §1, §2

[6] = test system: human pancreas cancer MiaPaca-2 cells; test: Antiproliferative activity, SRB assay, 72 h; conditions: for SI: IC50 MCF-10A / IC50 MiaPaca-1 (so in the source)
Experimental: as §1, §2

[7] = test system: human prostate adenocarcinoma PC-3; test: Antiproliferative activity, SRB assay, 72 h; conditions: for IC50: Homo sapiens; for SI: IC50 MCF-10A / IC50 PC-3
Experimental: as §1, §2

[8] = test system: human normal epithelial cells from the mammary gland (MCF-10A); test: Cytotoxicity on non-tumorigenic cells, SRB assay, 72 h
Experimental: as §1, §2

[9] = MCF7, MCF-7, 72 h, SRB, read-out: IC50
[10] = Homo sapiens, HCT-116, HCT116, 72 h, SRB, read-out: IC50
[11] = Homo sapiens, SRB, read-out: IC50
[12] = Homo sapiens, Hs 294T, Hs249T (so in the source), SRB, read-out: IC50
[13] = Homo sapiens, MIA PaCa-2, MiaPaca-1 (so in the source), 72 h, SRB, read-out: IC50
[14] = PC-3, 72 h, SRB, read-out: IC50
[15] = Homo sapiens, MCF-10A normal cells, SRB, read-out: IC50

| Structure (SMILES) | IC50 ([1]; MTT, read-out: IC50) [µM] | SI [1] | IC50 [2, 9] [µM] | SI [2] | IC50 [3, 10] [µM] | SI [3] | IC50 [4, 11] [µM] | SI [4] | IC50 [5, 12] [µM] | SI [5] | IC50 [6, 13] [µM] | SI [6] | IC50 [7, 14] [µM] | SI [7] | IC50 [8, 15] [µM] | IC50 [1] [µM] | IC50 ([2]; MCF7, 72 h) [µM] | IC50 ([7]; 72 h) [µM] | also measured |
| --- | --- | --- | --- | --- | --- | --- | --- | --- | --- | --- | --- | --- | --- | --- | --- | --- | --- | --- | --- |
| C=C(C)[C@@H]1CC[C@]2(COC(C)=O)CC[C@]3(C)[C@H](CC[C@@H]4[C@@]5(C)CC[C@H](O)C(C)(C)[C@@H]5CC[C@]43C)[C@@H]12 [A, 28-O-acetylbetulin, reference compound] | 41.1 ± 8.46 | 3.02 | 72.4 ± 6.6 | 1.71 | 40.6 ± 13.6 | 3.05 | 27.8 ± 10.5 | 4.45 | 128 ± 14.2 | 0.97 | 127 ± 16.3 | 0.98 | 80.7 ± 13.4 | 1.54 | 124 ± 33 |  |  |  |  |
| C=C(C)[C@@H]1CC[C@]2(COC(C)=O)CC[C@]3(C)C(CCC4[C@@]5(C)CC[C@H](OC(=O)CC(C)(C)CC(=O)O)C(C)(C)C5CC[C@]43C)C12 (stereo partly shown) [Compound 1] | 2.9 ± 0.26 | 11.44 | 7.02 ± 2.39 | 4.73 | 6.38 ± 2.87 | 5.20 | 4.94 ± 0.48 | 6.71 | 11.6 ± 1.12 | 2.85 | 23.6 ± 3.83 | 1.41 | 14 ± 7.02 | 2.36 | 33.2 ± 1.91 |  |  |  |  |
| C=C(C)[C@@H]1CC[C@]2(COC(C)=O)CC[C@]3(C)C(CCC4[C@@]5(C)CC[C@H](OC(=O)CC(C)(C)C(=O)O)C(C)(C)C5CC[C@]43C)C12 (stereo partly shown) [Compound 2, 28-acetyl-3-(3′,3′-dimethylsuccinyl)betulin] |  | 7.70 |  | 2.04 |  | 3.10 |  | 7.43 |  | 1.23 |  | 1.20 |  | 1.69 |  | 4.4 ± 1.63 | 16.6 ± 7.67 | 20.1 ± 2.12 | IC50 ([3]; Homo sapiens, HCT-116, 72 h): 10.9 ± 2.94 µM; IC50 ([4]; Homo sapiens): 4.57 ± 1.79 µM; IC50 ([5]; Homo sapiens, Hs 294T): 27.6 ± 0.65 µM; IC50 ([6]; Homo sapiens, MIA PaCa-2, 72 h): 28.2 ± 4.4 µM; IC50 ([8]; Homo sapiens, MCF-10A): 33.9 ± 4.24 µM |
| C=C(C)[C@@H]1CC[C@]2(COC(C)=O)CC[C@]3(C)C(CCC4[C@@]5(C)CC[C@H](OC(=O)CCC(=O)O)C(C)(C)C5CC[C@]43C)C12 (stereo partly shown) [Compound 3] |  | 8.82 |  | 1.94 |  | 2.55 |  | 6.53 |  | 1.53 |  | 0.97 |  | 1.50 |  | 3.93 ± 1.54 | 17.3 ± 6.33 | 22.4 ± 2.56 | IC50 ([3]; Homo sapiens, HCT-116, 72 h): 13.2 ± 1.02 µM; IC50 ([4]; Homo sapiens): 5.13 ± 0.85 µM; IC50 ([5]; Homo sapiens, Hs 294T): 21.9 ± 4.27 µM; IC50 ([6]; Homo sapiens, MIA PaCa-2, 72 h): 34.5 ± 5.47 µM; IC50 ([8]; Homo sapiens, MCF-10A): 33.5 ± 1.88 µM |
| C=C(C)[C@@H]1CC[C@]2(COC(=O)C#CC)CC[C@]3(C)C(CCC4[C@@]5(C)CC[C@H](OC(=O)CC(C)(C)CC(=O)O)C(C)(C)C5CC[C@]43C)C12 (stereo partly shown) [Compound 4c] | 3.23 ± 1.38 | 10.10 | 16.6 ± 2.15 | 1.96 | 8.45 ± 2.15 | 3.85 | 7.37 ± 2.3 | 4.42 | 9.68 ± 1.54 | 3.37 | 22.7 ± 5.53 | 1.43 | 10.1 ± 2.46 | 3.21 | 32.6 ± 2.15 |  |  |  |  |
| C=C(C)[C@@H]1CC[C@]2(COC(=O)CC)CC[C@]3(C)C(CCC4[C@@]5(C)CC[C@H](OC(=O)CC(C)(C)CC(=O)O)C(C)(C)C5CC[C@]43C)C12 (stereo partly shown) [Compound 4d] | 5.15 ± 0.47 | 11.73 | 20.6 ± 5.77 | 2.93 | 16.9 ± 5.61 | 3.58 | 6.24 ± 1.25 | 9.68 | 18.7 ± 9.67 | 3.23 | 34.2 ± 2.96 | 1.77 | 21.7 ± 4.52 | 2.78 | 60.4 ± 15.9 |  |  |  |  |
| C=C(C)[C@@H]1CC[C@]2(COC(=O)C#CC3CC3)CC[C@]3(C)C(CCC4[C@@]5(C)CC[C@H](OC(=O)CC(C)(C)CC(=O)O)C(C)(C)C5CC[C@]43C)C12 (stereo partly shown) [Compound 4e] | 3.16 ± 0.88 | 21.50 | 25.7 ± 4.43 | 2.60 | 23.2 ± 5.91 | 2.93 | 59.8 ± 22.2 | 1.14 | 19.8 ± 5.61 | 3.40 | 67.1 ± 14.5 | 1.01 | 15.2 ± 5.91 | 4.47 | 68 ± 34.9 |  |  |  |  |
| C=C(C)[C@@H]1CC[C@]2(COC(=O)C#Cc3ccccc3)CC[C@]3(C)C(CCC4[C@@]5(C)CC[C@H](OC(=O)CC(C)(C)CC(=O)O)C(C)(C)C5CC[C@]43C)C12 (stereo partly shown) [Compound 4f] |  |  |  |  |  |  |  |  |  |  |  |  |  |  |  | 46.6 ± 11.8 | 131 ± 8.83 | 95.8 ± 27.1 | IC50 ([3]; HCT116, 72 h, SRB): does not show activity and Neg; IC50 ([4]; SRB): does not show activity and Neg; IC50 ([5]; Hs249T (so in the source), SRB): Neg; IC50 ([6]; MiaPaca-1 (so in the source), 72 h, SRB): Neg; IC50 ([8]; MCF-10A normal cells, SRB): Neg |
| C#CC(=O)OC[C@]12CC[C@@H](C(=C)C)C1C1CCC3[C@@]4(C)CC[C@H](OC(=O)CC(C)(C)C(=O)O)C(C)(C)C4CC[C@@]3(C)[C@]1(C)CC2 (stereo partly shown) [Compound 5a] | 0.6 ± 0.175 | 21.17 | 19.4 ± 3.1 | 0.65 | 3.64 ± 0.6 | 3.49 | 10.7 ± 3 | 1.18 |  |  |  |  | 0.85 ± 0.17 | 14.94 | 12.7 ± 0.5 |  |  |  |  |
